Earlier results on one compound are cited in US20240252511A1, “METHODS OF TREATING DEPRESSION AND ANXIETY” (Woolsey Pharmaceuticals, Inc., priority 2021, published 2024).

For the series the following is noted: in vivo; 1 hydroxy (M3) metabolite.

Consider `O=S(=O)(c1cccc2c(O)nccc12)N1CCCNCC1` [M3, hydroxyfasudil], for which the half-life entry is “about 8 hours”.
